Experiments:
Rattus norvegicus [1] = test: Anticonvulsant activity against PTZ-induced kindling Wistar rat model assessed as seizure latency at 30 mg/kg, ip; format: functional; conditions: route intraperitoneal
Rattus norvegicus [2] = test: Anticonvulsant activity against PTZ-induced kindling Wistar rat model assessed as duration of behavirol seizure at 30 mg/kg, ip; format: functional; conditions: route intraperitoneal
Rattus norvegicus [3] = test: Neurotoxicity in Wistar rat at 30 mg/kg, ip by rotarod test; format: toxicity, organism-based; design: dose 30 mg/kg, route intraperitoneal; conditions: in vivo
Rattus norvegicus [4] = test: Neurotoxicity in Wistar rat assessed as motor impairment at 30 mg/kg, ip by rotarod test; format: toxicity, organism-based; design: dose 30 mg/kg, route intraperitoneal; conditions: in vivo
Rattus norvegicus [5] = test: Anticonvulsant activity against PTZ-induced kindling Wistar rat model assessed as duration of behavirol seizure at 100 mg/kg, ip; format: functional; conditions: route intraperitoneal
Rattus norvegicus [6] = test: Anticonvulsant activity against PTZ-induced kindling Wistar rat model assessed as duration of behavirol seizure at 200 mg/kg, ip; format: functional; conditions: route intraperitoneal
Rattus norvegicus [7] = test: Anticonvulsant activity against PTZ-induced kindling Wistar rat model assessed as seizure latency at 200 mg/kg, ip; format: functional; conditions: route intraperitoneal
Rattus norvegicus [8] = test: Anticonvulsant activity against PTZ-induced kindling Wistar rat model assessed as seizure latency at 100 mg/kg, ip; format: functional; conditions: route intraperitoneal
Rattus norvegicus [9] = test: Neurotoxicity in Wistar rat assessed as motor impairment at 100 mg/kg, ip by rotarod test; format: toxicity, organism-based; design: dose 100 mg/kg, route intraperitoneal; conditions: in vivo

| Compound | Time (Rattus norvegicus [1]) | Time (Rattus norvegicus [2]) | other results |
| --- | --- | --- | --- |
| CC1Oc2ccccc2/C(=N/OCc2cccc(F)c2)C1n1ccnc1.O=[N+]([O-])O (racemic) | 321 s | 51.5 s | – |
| Clc1ccc(CO/N=C2\c3ccccc3OCC2n2ccnc2)c(Cl)c1.O=[N+]([O-])O (racemic) | 293 s | 49.3 s | – |
| Clc1ccc(CO/N=C2/c3ccccc3OCC2n2ccnc2)cc1.O=[N+]([O-])O (racemic) | 237 s | 52 s | – |
| Clc1ccc(CO/N=C2\c3ccccc3OCC2n2ccnc2)cc1.O=[N+]([O-])O (racemic) | 258 s | 51 s | – |
| Clc1ccc(CO/N=C2/c3ccc(Cl)cc3OCC2n2ccnc2)c(Cl)c1.O=[N+]([O-])O (racemic) | 715 s | 40.3 s | Activity (Rattus norvegicus [3]): Non-toxic; Activity (Rattus norvegicus [4]): 25% |
| CC1Oc2ccccc2/C(=N/OCc2ccc(Cl)cc2Cl)C1n1ccnc1.O=[N+]([O-])O (racemic) | 644 s | 42.8 s | – |
| Clc1ccc(CO/N=C2/c3ccc(Cl)cc3OCC2n2ccnc2)cc1.O=[N+]([O-])O (racemic) | 467 s | 47 s | – |
| Clc1ccc(CO/N=C2/c3ccccc3OCC2n2ccnc2)c(Cl)c1.O=[N+]([O-])O (racemic) | 358 s | 49.2 s | – |
| CC1Oc2ccccc2/C(=N/OCc2ccc(Cl)cc2)C1n1ccnc1.O=[N+]([O-])O (racemic) | 286 s | 49.7 s | – |
| O=[N+]([O-])O.c1ccc(CO/N=C2/c3ccccc3OCC2n2ccnc2)cc1 (racemic) | 274 s | 49.8 s | – |
| Brc1ccc(CO/N=C2/c3ccccc3OCC2n2ccnc2)cc1.O=[N+]([O-])O (racemic) | 268 s | 54.8 s | – |
| CC1Oc2ccccc2/C(=N/OCc2ccc(Cl)c(Cl)c2)C1n1ccnc1.O=[N+]([O-])O (racemic) | 367 s | 47.5 s | – |
| Clc1ccc(CO/N=C2\c3ccccc3OCC2n2ccnc2)cc1Cl.O=[N+]([O-])O (racemic) | 266 s | 51.8 s | – |
| CC1Oc2ccccc2/C(=N/OCc2ccccc2F)C1n1ccnc1.O=[N+]([O-])O (racemic) | 254 s | 51.7 s | – |
| CCCC(CCC)C(=O)[O-].[Na+] [VALPROATE SODIUM] | – | – | Time (Rattus norvegicus [5]): 40.5 s; Time (Rattus norvegicus [6]): 26.5 s; Time (Rattus norvegicus [7]): 900 s; Time (Rattus norvegicus [8]): 817 s |
| CC1Oc2ccccc2/C(=N/OCc2ccccc2)C1n1ccnc1.O=[N+]([O-])O (racemic) | 259 s | 52.7 s | – |
| CC1Oc2cc(Cl)ccc2/C(=N/OCc2ccc(Cl)cc2Cl)C1n1ccnc1.O=[N+]([O-])O (racemic) | 776 s | 342 s | Activity (Rattus norvegicus [3]): Non-toxic; Activity (Rattus norvegicus [9]): 50% |
| Clc1ccc2c(c1)OCC(n1ccnc1)/C2=N\OCc1ccccc1.O=[N+]([O-])O (racemic) | 323 s | 46.7 s | – |
| CC1Oc2cc(Cl)ccc2/C(=N/OCc2ccc(Cl)cc2)C1n1ccnc1.O=[N+]([O-])O (racemic) | 286 s | 45.5 s | – |
| Brc1ccc(CO/N=C2\c3ccccc3OCC2n2ccnc2)cc1.O=[N+]([O-])O (racemic) | 261 s | 56.5 s | – |
| CC1Oc2ccccc2/C(=N/OCc2ccc(F)cc2)C1n1ccnc1.O=[N+]([O-])O (racemic) | 263 s | 52.3 s | – |
| O=[N+]([O-])O.c1ccc(CO/N=C2\c3ccccc3OCC2n2ccnc2)cc1 (racemic) | 288 s | 50.8 s | – |
| CC1Oc2cc(Cl)ccc2/C(=N/OCc2ccccc2)C1n1ccnc1.O=[N+]([O-])O (racemic) | 282 s | 50.7 s | – |
| CC1Oc2ccccc2/C(=N/OCc2ccc(Br)cc2)C1n1ccnc1.O=[N+]([O-])O (racemic) | 305 s | 51.3 s | – |
| Clc1ccc(CO/N=C2/c3ccccc3OCC2n2ccnc2)cc1Cl.O=[N+]([O-])O (racemic) | 285 s | 50.3 s | – |
| Clc1ccc2c(c1)OCC(n1ccnc1)/C2=N\OCc1ccc(Cl)c(Cl)c1.O=[N+]([O-])O (racemic) | 271 s | 48.5 s | – |
